We go through one compound from patent US11021445B2, “Carboxylic acid derivative as AT2R receptor antagonist” (SHANDONG DANHONG PHARMACEUTICAL CO., LTD., priority 2017, dated 2021).

In general, solubility refers to the concentration that dissolves in the medium under given conditions. A lower solubility goes with little dissolved substance. One may read the IC50 as the concentration that gives 50% inhibition.

Data set [1] is described as follows: Determination of kinetic solubility. To be noted: buffer solution pH 7.4, aqueous buffer, kinetic from dmso stock, pH 7.4, 24 hours at room temperature, theoretical maximum 200 μM. In kind it is physicochemical. On the procedure:
The to-be-tested compound was dissolved in DMSO to prepare a 10 mmol/L stock solution. 980 μL of dissolution medium was pipetted into a 2 mL screw-capped glass vial by using a pipette (Eppendorf Research Company). 20 μL of the stock solution of each test compound and the QC sample were added to a buffer solution corresponding to a kinetic detection solution of pH 7.4. The final concentrations of the test compound and DMSO solution were 200 μM and 2%, respectively. The cover of the medicine bottle was screwed. The theoretical maximum concentration is 200 μM. The mixture was shaken at 880 rpm for 24 hours at room temperature. The vial was centrifuged for 30 minutes at 13,000 rpm. 200 μL of the supernatant was added to a 96-well plate by using a digital pipette. The solubility of the test compound was determined by high performance liquid chromatography, and the experimental results are shown in Table 2.

In another data set the target is T1, hAT2 (Homo sapiens, UniProt P50052).
T1 construct: expressed in transfected cells; host or cells: HEK-293
T1 sequence (P50052 1-363): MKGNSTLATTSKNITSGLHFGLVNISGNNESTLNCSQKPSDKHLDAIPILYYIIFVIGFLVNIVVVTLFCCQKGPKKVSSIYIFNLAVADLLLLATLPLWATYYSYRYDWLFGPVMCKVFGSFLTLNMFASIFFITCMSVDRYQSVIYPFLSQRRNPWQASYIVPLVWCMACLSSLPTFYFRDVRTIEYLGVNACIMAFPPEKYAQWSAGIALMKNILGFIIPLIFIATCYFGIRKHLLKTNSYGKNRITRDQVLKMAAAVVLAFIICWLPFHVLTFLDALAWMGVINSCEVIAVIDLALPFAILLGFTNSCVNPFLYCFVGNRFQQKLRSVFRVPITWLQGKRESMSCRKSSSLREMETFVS
The data set is described as follows: hAT2 receptor binding assay (SPA, [125I]-Sar1-Ile8-Angiotensin II). Particulars: membrane of HEK-293 cells overexpressing hAT2; 0.1 nM 125I ligand. On the procedure: hAT2 Receptor Binding Assay
Protease inhibitor mixture, free of ethylenediaminetetraacetic acid-1 tablets (Roche #11873580001) (50 mL plus one piece)
Experimental Methods and Steps
The reference ligand PD123319 and the test compound were prepared into a 750 μM mother liquor by DMSO; each compound was prepared into a solution of 8 concentration gradients (up to a concentration of 750 μM, 3-fold dilution) and 10 μl of the solution was added to a master of a 384-well plate per well.
The SPA beads were prepared to a mother liquor of 25 mg/ml by the buffer;
The isotope [^125I]-Sar1-Ile8-Angiotensin II was prepared into a mother liquor of 50 μCi/ml by adding pure water.
The cell membrane overexpressing hAT2 in HEK-293 cells was prepared to 2.5 mg/ml by the buffer.
200 nl of compound was aspirated from the mother plate with ECHO to each well of the 384-well test plate. ZPE was added to an equal volume of DMSO. (The concentration of the test compound in the reaction was diluted by 250 times).
A 50 ml membrane solution containing 10 μg/μl of magnetic beads and 0.05 μg/μl of AT2 was prepared, placed on a shaker and uniformly mixed. (100 rpm, 30 min). The test plate finally contained an hAT2 membrane with 1.25 μg/well and magnetic beads with 250 μg/well.
A 3.2 ml membrane liquid mixture was added to the compound test plate by using a Multidrop Combi pipette, and 25 μl was added to each well.
A 0.2 nM solution was prepared with 50 μCi/ml of isotope [^125I]-Sar1-Ile8-Angiotensin II mother liquor by the buffer, and 0.2 nM of ^125I was added to the compound test plate with a Multidrop Combi pipette. A volume of 25 μl was added to each well. The final concentration of ^125I isotope is 0.1 nM.
The prepared test plate was placed on a shaker overnight at room temperature at 200 rpm.
The test plate was centrifuged with a centrifuge at 1200 rpm for 1 min.
The centrifuged test plate was read with Microbeta.

Data set [2] can be described thus: Plasma protein binding rate (PPB) test, equilibrium dialysis. Particulars: human, 37°C. The class given is in vitro ADME. On the procedure: (§1) In vitro protein binding rates of 0.2 μM, 2 μM, 10 μM of test compounds with Sprague-Dawley rats, beagle dogs, human plasma were determined by equilibrium dialysis.
(§2) The experiment will use a 96-well equilibrium dialysis plate (HTDialysis device) to determine the plasma protein binding rate of the to-be-tested compound and the control compounds.
(§3) Prior to the start of the experiment, the dialysis membrane was pretreated according to the instructions for use and the dialysis unit was assembled as required.
(§4) Blank plasma was taken from CD-1 mice, Sprague-Dawley rats, Beagle dogs, cynomolgus monkeys and humans (an anticoagulant is EDTA-K2, which is a commercial product purchased, or is collected and prepared by the Drug Evaluation Department of Wuxi AppTech, and is stored in a refrigerator below −60° C. before use). A certain volume of the to-be-tested compound or the control compound working solution was added to prepare plasma samples of the compound to be tested at a concentration of 0.2, 2, 10 μM and plasma samples of the control compound at a concentration of 2 μM (n=1). The organic phase content was ≤1%. First, a certain volume of a plasma sample containing the to-be-tested compound and the control compound was taken out into the sample receiving plate as a sample at zero time (T0 sample, n=3); secondly, a plasma sample containing the to-be-tested compound and the control compound was added to one side of the dialysis membrane (plasma end, n=3), and a certain volume of dialysis buffer (buffer end, n=3) was added to the other side of the dialysis membrane; then the dialysis plate was placed in a humidified incubator with 5% CO2 for incubation for 4 hours at 37±1° C.
(§5) After the incubation, a certain volume of the dialyzed buffer sample (F sample) and the dialyzed plasma sample (T sample) were transferred to the sample receiving plate, and all samples were subjected to protein precipitation for LC/MS/MS analysis. And the dissociation rate of the compound (% Unbound) was calculated by the following formula: % Unbound=100*[F]/[T], % Bound=100−% Unbound. Wherein, % Unbound is the dissociation rate of the compound; % Bound is the binding rate of the compound; [F] is the concentration of the compound at the buffer end of the dialysis plate; [T] is the concentration of the compound at the plasma end of the dialysis plate; and the experimental results are shown in Table 7.
Background: In equilibrium dialysis only unbound substance equilibrates across the membrane.

Experiment in data set [3]: as above
In kind it is in vitro ADME, Sprague-Dawley rats. Particulars: Sprague-Dawley, rat, 37°C, read-out: Plasma Protein Binding (%) SD Rat Plasma (converted). The method, then: as §1, §2, §3, §4, §5

Like-named read-outs stand apart in the source and are kept apart here. Where only a bound is given, the exact number is not on record here.

Turning to `N#Cc1ccc2c(c1OCc1ccccc1)C[C@@H](C(=O)O)N(C(=O)[C@H](OC1CCCC1)c1ccccc1)C2` [Compound 111], in data set [1], the solubility at 24 h was > 200 µM. At hAT2, this compound registered an IC50 of 15.9 nM. In addition, the fraction unbound at 4 h in data set [2] and in data set [3] was 0.002 in each case.
